Measurements from PubChem BioAssay AID328 (DTP/NCI, 2004).
Several values for one entry are separate records, joined by “and”; a condition that tells them apart may be missing. Equal values may be shown once. Toxic doses and inconclusive results are not listed.

Tested on: BDF1 mice, P388 leukemia ip, median survival T/C
Assay: NCI In Vivo Anticancer Drug Screen. Data for tumor model P388 Leukemia (intraperitoneal) in B6D2F1 (BDF1) mice
Conditions: endpoint: median survival time, higher = longer survival
Method in brief: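 Antitumour effect was judged in vivo: survival in drug-treated mice, normalised to that of vehicle-dosed controls, gives the reported T/C.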

[1] = dose: 50.0 mg/kg/injection, schedule: Q04DX003 (ip), vehicle: saline with Tween-80
[2] = dose: 25.0 mg/kg/injection, schedule: Q01DX009 (ip), vehicle: saline with Tween-80
[3] = dose: 50.0 mg/kg/injection, schedule: Q01DX009 (ip), vehicle: saline with Tween-80
[4] = dose: 100.0 mg/kg/injection, schedule: Q01DX009 (ip), vehicle: saline with Tween-80
[5] = dose: 100.0 mg/kg/injection, schedule: Q04DX003 (ip), vehicle: saline with Tween-80
[6] = dose: 200.0 mg/kg/injection, schedule: Q01DX009 (ip), vehicle: saline with Tween-80
[7] = dose: 200.0 mg/kg/injection, schedule: Q04DX003 (ip), vehicle: saline with Tween-80
[8] = dose: 400.0 mg/kg/injection, schedule: Q01DX009 (ip), vehicle: saline with Tween-80
[9] = dose: 400.0 mg/kg/injection, schedule: Q04DX003 (ip), vehicle: saline with Tween-80
[10] = dose: 200.0 mg/kg/injection, schedule: Q04DX003 (ip), vehicle: saline sonified
[11] = dose: 400.0 mg/kg/injection, schedule: Q04DX003 (ip), vehicle: saline sonified
[12] = dose: 25.0 mg/kg/injection, schedule: Q01DX009 (ip), vehicle: gum acacia

`CCC1=C(C[C@H]2NCCc3cc(OC)c(OC)cc32)C[C@H]2c3cc(OC)c(OC)cc3CCN2C1` was tested, and the T/C (dose: 4.0 mg/kg/injection, schedule: Q04DX003 (ip), vehicle: saline) was 110 % of control, the T/C (dose: 6.7 mg/kg/injection, schedule: Q04DX003 (ip), vehicle: saline with Tween-80) was 113 % of control and the T/C (dose: 15.0 mg/kg/injection, schedule: Q04DX003 (ip), vehicle: saline with Tween-80) was 159 % of control. The T/C (dose: 16.0 mg/kg/injection, schedule: Q04DX003 (ip), vehicle: saline) was 158 % of control, the T/C (dose: 22.0 mg/kg/injection, schedule: Q04DX003 (ip), vehicle: Klucel (hydroxypropylcellulose) (HPC)) was 165 % of control and the T/C (dose: 32.0 mg/kg/injection, schedule: Q04DX003 (ip), vehicle: saline) was 174 % of control. For the same compound, the T/C (dose: 33.0 mg/kg/injection, schedule: Q04DX003 (ip), vehicle: Klucel (hydroxypropylcellulose) (HPC)) was 165 % of control, the T/C (dose: 33.0 mg/kg/injection, schedule: Q04DX003 (ip), vehicle: saline with Tween-80) was 177 % of control and the T/C (dose: 33.0 mg/kg/injection, schedule: Q04DX003 (ip), vehicle: saline) was 154 % of control. For the same compound, the T/C [1] was 195 % of control and the T/C (dose: 75.0 mg/kg/injection, schedule: Q04DX003 (ip), vehicle: saline) was 90 % of control.

`OCCCN1CCC2(CC1)SSC1(CCN(CCCO)CC1)S2` was tested, and the T/C (dose: 50.0 mg/kg/injection, schedule: Q04DX003 (ip), vehicle: saline) was 95 % of control, the T/C (dose: 100.0 mg/kg/injection, schedule: Q04DX003 (ip), vehicle: saline) was 100 % of control and 109 % of control and the T/C (dose: 200.0 mg/kg/injection, schedule: Q04DX003 (ip), vehicle: saline) was 100 % of control and 104 % of control.

For `N#CCC(NC(=O)OCc1ccccc1)C(=O)OCc1ccccc1` (stereo not drawn), the T/C [2] was 100 % of control, the T/C [3] was 94 % of control and the T/C [1] was 96 % of control. The T/C [4] was 88 % of control, the T/C [5] was 105 % of control and the T/C [6] was 96 % of control. The T/C [7] was 94 % of control, the T/C [8] was 96 % of control and the T/C [9] was 105 % of control.

For `O=C(C[n+]1cc(Br)cc2ccccc21)c1ccc(O)c(O)c1`, the T/C (dose: 50.0 mg/kg/injection, schedule: Q01DX009 (ip), vehicle: Klucel (hydroxypropylcellulose) (HPC)) was 95 % of control, the T/C (dose: 176.0 mg/kg/injection, schedule: Q04DX003 (ip), vehicle: saline sonified) was 118 % of control and the T/C (dose: 200.0 mg/kg/injection, schedule: Q01DX009 (ip), vehicle: saline) was 170 % of control. For the same compound, the T/C (dose: 200.0 mg/kg/injection, schedule: Q04DX003 (ip), vehicle: Klucel (hydroxypropylcellulose) (HPC)) was 110 % of control, the T/C [10] was 122 % of control and the T/C (dose: 264.0 mg/kg/injection, schedule: Q01DX009 (ip), vehicle: saline with Tween-80) was 113 % of control. For the same compound, the T/C (dose: 400.0 mg/kg/injection, schedule: Q01DX009 (ip), vehicle: Klucel (hydroxypropylcellulose) (HPC)) was 115 % of control, the T/C (dose: 400.0 mg/kg/injection, schedule: Q01DX009 (ip), vehicle: saline) was 180 % of control and the T/C [11] was 118 % of control.

With `COc1ccc(C(=O)C(C)C=O)c(OCc2ccccc2)c1OC` (stereo not drawn) the T/C [4] was 95 % of control, the T/C [5] was 104 % of control and the T/C [6] was 113 % of control. The T/C [7] was 113 % of control and the T/C [9] was 90 % of control.

`CCOC(=O)C12CC=CC(CCC1)C2=O` (stereo not drawn) (tested in a mixture with another compound) was tested, and the T/C [4] was 100 % of control, the T/C [5] was 90 % of control and the T/C [6] was 104 % of control. The T/C [7] was 95 % of control, the T/C [8] was 90 % of control and the T/C [9] was 104 % of control.

In the case of `O=C1NC2C(NC(=O)N2Cl)N1Cl` (stereo not drawn), the T/C (dose: 12.5 mg/kg/injection, schedule: Q01DX009 (ip), vehicle: saline with Tween-80) is reported as 103 % of control, the T/C [2] is reported as 100 % of control and the T/C [3] is reported as 103 % of control.

For `O=C(/C=N/O)Nc1cc(Cl)ccc1Cl`, the T/C [4] was 95 % of control, the T/C [5] was 100 % of control and the T/C [6] was 90 % of control. The T/C [7] was 100 % of control, the T/C [8] was 90 % of control and the T/C [9] was 100 % of control.

In the case of `NC(=S)N1N=C(c2cccc([N+](=O)[O-])c2)CCC1=O`, the T/C [5] is reported as 100 % of control and the T/C [9] is reported as 100 % of control.

In the case of `Nc1nc(-c2ccccc2)cc2ccccc12`, the T/C (dose: 12.5 mg/kg/injection, schedule: Q04DX003 (ip), vehicle: saline with Tween-80) is reported as 100 % of control and the T/C (dose: 25.0 mg/kg/injection, schedule: Q04DX003 (ip), vehicle: saline with Tween-80) is reported as 97 % of control.

With `Brc1ncnc2nc[nH]c12` the T/C (dose: 100.0 mg/kg/injection, schedule: Q01DX009 (ip), vehicle: saline sonified) was 105 % of control, the T/C (dose: 100.0 mg/kg/injection, schedule: Q04DX003 (ip), vehicle: saline sonified) was 100 % of control and the T/C (dose: 200.0 mg/kg/injection, schedule: Q01DX009 (ip), vehicle: saline sonified) was 111 % of control. For the same compound, the T/C [10] was 105 % of control, the T/C (dose: 400.0 mg/kg/injection, schedule: Q01DX009 (ip), vehicle: saline sonified) was 116 % of control and the T/C [11] was 100 % of control.

In the case of `O=C1c2cccc(O)c2C(=O)c2c(O)cc(CO)cc21`, the T/C (dose: 8.8 mg/kg/injection, schedule: Q01DX010 (ip), vehicle: other) is reported as 100 % of control, the T/C (dose: 10.0 mg/kg/injection, schedule: Q01DX010 (ip), vehicle: carboxymethylcellulose (CMC)) is reported as 122 % of control and the T/C (dose: 10.0 mg/kg/injection, schedule: Q01DX010 (ip), vehicle: other) is reported as 108 % of control. For the same compound, the T/C (dose: 13.0 mg/kg/injection, schedule: Q01DX010 (ip), vehicle: other) was 111 % of control, the T/C (dose: 16.0 mg/kg/injection, schedule: Q01DX009 (ip), vehicle: gum acacia) was 97 % of control and the T/C (dose: 20.0 mg/kg/injection, schedule: Q01DX009 (ip), vehicle: gum acacia) was 106 % of control. For the same compound, the T/C (dose: 20.0 mg/kg/injection, schedule: Q01DX010 (ip), vehicle: carboxymethylcellulose (CMC)) was 94 % of control, the T/C (dose: 20.0 mg/kg/injection, schedule: Q01DX010 (ip), vehicle: other) was 154 % of control and the T/C [12] was 97 % of control. The T/C (dose: 40.0 mg/kg/injection, schedule: Q01DX010 (ip), vehicle: carboxymethylcellulose (CMC)) was 116 % of control, the T/C (dose: 40.0 mg/kg/injection, schedule: Q01DX010 (ip), vehicle: other) was 120 % of control and the T/C (dose: 80.0 mg/kg/injection, schedule: Q01DX010 (ip), vehicle: carboxymethylcellulose (CMC)) was 122 % of control.

With `CC1=CCCC2(CCC3(C)CC32)C1(C)C` (stereo not drawn) the T/C (dose: 45.0 mg/kg/injection, schedule: Q01DX009 (ip), vehicle: saline) was 90 % of control, the T/C (dose: 50.0 mg/kg/injection, schedule: Q01DX009 (ip), vehicle: saline) was 100 % of control and the T/C (dose: 67.0 mg/kg/injection, schedule: Q01DX009 (ip), vehicle: saline) was 109 % of control. For the same compound, the T/C (dose: 100.0 mg/kg/injection, schedule: Q01DX009 (ip), vehicle: saline) was 113 % of control and 120 % of control.

With `C=C1C(=O)OC2/C=C(\C)CC(O)/C=C(\C)CC(OC(=O)/C(=C\C)COC(C)=O)C12` (stereo not drawn) the T/C (dose: 20.0 mg/kg/injection, schedule: Q01DX009 (ip), vehicle: saline) was 122 % of control, the T/C (dose: 44.0 mg/kg/injection, schedule: Q01DX009 (ip), vehicle: saline) was 150 % of control and the T/C (dose: 66.0 mg/kg/injection, schedule: Q01DX009 (ip), vehicle: saline) was 122 % of control.

For `CC(C)(C)OC(=O)NC(CC(Cc1ccccc1)C(N)=O)C(=O)N1CCCC1C(=O)OCc1ccccc1` (stereo not drawn), the T/C (dose: 50.0 mg/kg/injection, schedule: Q01DX005 (ip), vehicle: saline with Tween-80) was 102 % of control, the T/C (dose: 100.0 mg/kg/injection, schedule: Q01DX005 (ip), vehicle: saline with Tween-80) was 95 % of control and the T/C (dose: 200.0 mg/kg/injection, schedule: Q01DX005 (ip), vehicle: saline with Tween-80) was 98 % of control.

`O=C(NC(Cc1nn[nH]n1)C(=O)OCc1ccccc1)OCc1ccccc1` (stereo not drawn) was tested, and the T/C [4] was 100 % of control, the T/C [5] was 111 % of control and the T/C [6] was 96 % of control. For the same compound, the T/C [7] was 94 % of control and the T/C [9] was 87 % of control.

For `N=C(N)SCCCCCCCCCCSC(=N)N`, the T/C [2] was 97 % of control and the T/C [3] was 123 % of control.

With `COC(=O)c1ccc(-c2cc(Cl)c3cc(S(=O)(=O)F)ccc3n2)cc1` the T/C [4] was 90 % of control and the T/C [6] was 90 % of control.

With `Cc1cc(=O)[nH]c(N/N=C/c2ccco2)n1` the T/C (dose: 12.5 mg/kg/injection, schedule: Q01DX009 (ip), vehicle: gum acacia) was 108 % of control, the T/C [12] was 104 % of control and the T/C (dose: 50.0 mg/kg/injection, schedule: Q01DX009 (ip), vehicle: gum acacia) was 108 % of control. The T/C (dose: 100.0 mg/kg/injection, schedule: Q04DX003 (ip), vehicle: gum acacia) was 109 % of control and the T/C (dose: 200.0 mg/kg/injection, schedule: Q04DX003 (ip), vehicle: gum acacia) was 118 % of control.
